Data on nine compounds can be found in patent publication US20250143304A1, “INSECT, ACARINA AND NEMATODE PEST CONTROL” (SYNGENTA CROP PROTECTION AG, priority 2022, published 2025).

Where two headings read alike, the source gives them in different places.

For the data set, the system named is Spodoptera littoralis (Egyptian cotton leaf worm). Briefly: Spodoptera littoralis (Egyptian cotton leaf worm) feeding/contact activity assay, mortality on cotton leaf discs; synergy by COLBY formula. The format is in vivo. The source says: A synergistic effect exists whenever the action of an active ingredient combination is greater than the sum of the actions of the individual components. The action to be expected E for a given active ingredient combination obeys the so-called COLBY formula and can be calculated as follows (COLBY, S.R. “Calculating synergistic and antagonistic responses of herbicide combination”. Weeds, Vol. 15, pages 20-22 1967): • ppm=milligrams of active ingredient (a.i.) per liter • X=% action by first active ingredient using p ppm of the active ingredient • Y=% action by second active ingredient using q ppm of the active ingredient.
According to Colby, the expected (additive) action of active ingredients A+B using p+q ppm of active
If the action actually observed O is greater than the expected action E, then the action of the combination is super-additive, i.e. there is a synergistic effect. In mathematical terms, synergism corresponds to a positive value for the difference of (O-E). In the case of purely complementary addition of activities (expected activity), said difference (O-E) is zero. A negative value of said difference (O-E) signals a loss of activity compared to the expected activity.
The synergistic biological activity of combinations of component (A) and component (B) as disclosed herein was assessed using a Spodoptera littoralis (Egyptian cotton leaf worm) feeding/contact activity assay. Cotton leaf discs were placed onto agar in 24-well microtiter plates and sprayed with aqueous test solutions prepared from 10′000 ppm DMSO stock solutions. After drying the leaf discs were infested with L1 larvae. The samples were assessed for mortality 3 days after infestation.

[1] abbreviates: single component alone at 7.8125 mg/L, 3 days after infestation.
[2] abbreviates: single component alone at 15.625 mg/L, 3 days after infestation.
[3] abbreviates: single component alone at 1.95312 mg/L, 3 days after infestation.
Setting [4] is: single component alone at 3.90625 mg/L, 3 days after infestation.
Setting [5] is: single component alone at 31.25 mg/L, 3 days after infestation.
Where [6] appears, read: single component alone at 62.5 mg/L, 3 days after infestation.
Where [7] appears, read: single component alone at 125 mg/L, 3 days after infestation.
[8] abbreviates: single component alone at 250 mg/L, 3 days after infestation.
Where [9] appears, read: Spodoptera littoralis, foliar, 72 h, read-out: Mortality (%) Observed (%).

Consider `CC1(NC(=O)c2cccc3nn(-c4cccnc4)cc23)CC1` [B-4, indazapyroxamet], for which the “Mortality (%) Observed (%)” value is recorded as 0% under setting [1] and 0% under setting [2].
Usually mortality stands for the share of the test organisms that died. For `CCS(=O)(=O)c1cccnc1-c1cnc(OCC(F)(F)C(F)(F)F)cn1` [B-17, 2-(3-ethylsulfonyl-2-pyridyl)-5-(2,2,3,3,3-pentafluoropropoxy)pyrazine], the mortality at 0.0390625 µg/mL (Spodoptera littoralis, foliar, 72 h, single component alone at 0.0390625 mg/L, 3 days after infestation, read-out: Mortality (%) Observed (%)) is 0%. For the same compound, the mortality at 0.078125 µg/mL (Spodoptera littoralis, foliar, 72 h, single component alone at 0.078125 mg/L, 3 days after infestation, read-out: Mortality (%) Observed (%)) stood at 0%. In addition, the mortality at 0.15625 µg/mL (Spodoptera littoralis, foliar, 72 h, single component alone at 0.15625 mg/L, 3 days after infestation, read-out: Mortality (%) Observed (%)) is 0%. Also, under “Spodoptera littoralis, foliar, 72 h, single component alone at 0.3125 mg/L, 3 days after infestation, read-out: Mortality (%) Observed (%)”, the mortality at 0.3125 µg/mL was 0%. The mortality at 0.625 µg/mL (Spodoptera littoralis, foliar, 72 h, single component alone at 0.625 mg/L, 3 days after infestation, read-out: Mortality (%) Observed (%)) was 0%. Besides, the mortality at 1.25 µg/mL (Spodoptera littoralis, foliar, 72 h, single component alone at 1.25 mg/L, 3 days after infestation, read-out: Mortality (%) Observed (%)) was determined as 0%. Further, where the note is “Spodoptera littoralis, foliar, 72 h, single component alone at 2.5 mg/L, 3 days after infestation, read-out: Mortality (%) Observed (%)”, the mortality at 2.5 µg/mL worked out at 20%.
As to `C[C@]1(COC(=O)C2CC2)[C@@H]2C[C@H](O)[C@@]3(C)Oc4cc(-c5cccnc5)oc(=O)c4[C@H](O)[C@@H]3[C@@]2(C)CC[C@@H]1OC(=O)C1CC1` [B-134, afidopyropen], the “Mortality (%) Observed (%)” value by setting is: under setting [3], 0%; under setting [4], 0%; under setting [1], 0%; under setting [2], 0%; under setting [5], 0%; under setting [6], 0%. The “Mortality (%) Observed (%)” value reads like this: under setting [7], 0%; under setting [8], 0%.
Consider `CC1(C)C(C=C(Cl)Cl)C1C(=O)OC(C#N)c1cccc(Oc2ccccc2)c1` (stereo not drawn) [B-46, alpha-cypermethrin], for which, under setting [9], the mortality at 0.015625 µg/mL stood at 0%, the mortality at 0.03125 µg/mL came to 0%, the mortality at 0.0625 µg/mL was found to be 0% and the mortality at 0.125 µg/mL stood at 0%. Under setting [9], the mortality at 0.25 µg/mL was found to be 0% and the mortality at 0.5 µg/mL turned out to be 60%.
Turning to `CNC(=O)c1cc(Cl)cc(C)c1NC(=O)c1cc(Br)nn1-c1ncccc1Cl` [B-43, chlorantraniliprole], under setting [9], the mortality at 0.00390625 µg/mL came out at 0%, the mortality at 0.0078125 µg/mL stood at 0%, the mortality at 0.015625 µg/mL was 0% and the mortality at 0.03125 µg/mL was 0%. In addition, under setting [9], the mortality at 0.0625 µg/mL turned out to be 0% and the mortality at 0.125 µg/mL turned out to be 0%.
As for `CN/C(=N\[N+](=O)[O-])NCc1cnc(Cl)s1` [B-38, clothianidin], under setting [9], the mortality at 0.15625 µg/mL was found to be 0%, the mortality at 0.3125 µg/mL is 0%, the mortality at 0.625 µg/mL turned out to be 0% and the mortality at 1.25 µg/mL amounted to 0%. Under setting [9], the mortality at 2.5 µg/mL turned out to be 0%.
In the case of `CCN(C(=O)c1cnn(C(C)C(C)C)c1C)c1ccnnc1` (stereo not shown) [B-133, dimpropyridaz], the “Mortality (%) Observed (%)” value by setting is: under setting [2], 0%; under setting [5], 0%; under setting [6], 0%; under setting [7], 0%; under setting [8], 0%.
As to `CCC(=O)NCc1ccc(C2=NO[C@@](c3cc(Cl)c(F)c(Cl)c3)(C(F)(F)F)C2)c2c1OCC2` [A-1, N-[[4-[(5S)-5-(3,5-dichloro-4-fluorophenyl)-5-(trifluoromethyl)-4H-isoxazol-3-yl]-2,3-dihydrobenzofuran-7-yl]methyl]propanamide], under setting [9], the mortality at 0.0078125 µg/mL worked out at 0%, the mortality at 0.015625 µg/mL came to 0%, the mortality at 0.03125 µg/mL worked out at 0% and the mortality at 0.0625 µg/mL was determined as 80%. Also, the mortality at 0.125 µg/mL under setting [9] worked out at 100%.
For `C[n+]1c([O-])c(-c2ccccc2)c(=O)n2c1SC[C@@H]2c1cnc(Cl)s1` [B-5, fenmezoditiaz], the “Mortality (%) Observed (%)” value runs as follows: (single component alone at 0.488281 mg/L, 3 days after infestation) 0%; (single component alone at 0.976562 mg/L, 3 days after infestation) 0%; under setting [3], 0%; under setting [4], 0%; under setting [1], 0%.
